Data reported in DBAASP.
Values after ≈ are worked out from the molar mass of the structure shown. One block for each compound: values may come before it.

Experiments:
Experiment in all cases: ≥ marks a high value that may be exact or a test limit, other limits are often not marked, values filed in µg/mL are converted to µM
[1] = tested on: Pseudomonas aeruginosa PAO1
[2] = tested on: Escherichia coli ATCC 25922
[3] = tested on: Pseudomonas aeruginosa ATCC 27853
[4] = tested on: Staphylococcus aureus ATCC 25923
[5] = tested on: Staphylococcus epidermidis ATCC 12228
[6] = tested on: Escherichia coli
[7] = tested on: Pseudomonas aeruginosa
[8] = tested on: Staphylococcus aureus
[9] = tested on: Enterococcus faecalis ATCC 29212
[10] = tested on: Salmonella enterica subsp. enterica serovar Typhimurium ATCC 14028
[11] = tested on: Acinetobacter baumannii ATCC 19606
[12] = tested on: Candida albicans ATCC 90028
[13] = tested on: Staphylococcus aureus ATCC 29213
[14] = tested on: Escherichia coli UB1005

MIC [1]: > 128 µM
Structure (SMILES): CC[C@H](C)[C@H](NC(=O)[C@@H](NC(=O)[C@H](CC(N)=O)NC(=O)[C@H](CC(C)C)NC(=O)[C@H](CCSC)NC(=O)[C@@H](NC(=O)[C@H](Cc1ccccc1)NC(=O)[C@H](Cc1ccccc1)NC(=O)[C@H](CC(N)=O)NC(=O)[C@H](CCCCN)NC(=O)[C@H](CC(C)C)NC(=O)[C@H](CC(N)=O)NC(=O)[C@H](CCCCN)NC(=O)[C@@H](NC(=O)[C@@H](NC(=O)[C@@H](NC(=O)[C@H](C)NC(=O)[C@@H](NC(=O)[C@H](CCCCN)NC(=O)[C@@H](N)CCCCN)[C@@H](C)CC)[C@@H](C)CC)[C@@H](C)CC)[C@@H](C)O)[C@@H](C)CC)[C@@H](C)CC)C(=O)O [KKIAIITKNLKNFFIMLNII]

MIC [2]: 62 µM (≈ 133 µg/mL)
MIC [3]: 62 µM (≈ 133 µg/mL)
MIC [4]: 62 µM (≈ 133 µg/mL)
MIC [5]: 7.69 µM (≈ 16.5 µg/mL)
Structure (SMILES): CC(C)C[C@H](NC(=O)[C@H](CC(C)C)NC(=O)[C@H](CCCCN)NC(=O)[C@@H](N)Cc1c[nH]c2ccccc12)C(=O)N[C@@H](CO)C(=O)N[C@@H](CCCCN)C(=O)N[C@@H](C)C(=O)N[C@@H](CCC(N)=O)C(=O)N[C@@H](CCC(=O)O)C(=O)N[C@@H](CCCCN)C(=O)N[C@@H](Cc1ccccc1)C(=O)NCC(=O)N[C@@H](CCCCN)C(=O)N[C@@H](CC(N)=O)C(=O)N[C@@H](CCCCN)C(=O)N[C@@H](CO)C(=O)N[C@@H](CCCN=C(N)N)C(=O)N[C@@H](CS)C(N)=O [WKLLSKAQEKFGKNKSRC]

MIC [6]: 3.74 µM (≈ 8 µg/mL)
MIC [7]: 15 µM (≈ 32 µg/mL)
MIC [8]: 3.74 µM (≈ 8 µg/mL)
Structure (SMILES): CC(C)C[C@H](NC(=O)CNC(=O)[C@H](CCCCN)NC(=O)[C@H](C)NC(=O)[C@H](CC(C)C)NC(=O)[C@H](CCCCN)NC(=O)[C@H](C)NC(=O)[C@H](CC(C)C)NC(=O)CNC(=O)[C@H](CCCCN)NC(=O)[C@H](C)NC(=O)[C@H](Cc1c[nH]c2ccccc12)NC(=O)[C@H](CCCCN)NC(=O)[C@H](C)NC(=O)[C@H](CC(C)C)NC(=O)CNC(=O)[C@H](CCCCN)NC(=O)[C@H](C)NC(=O)[C@H](CC(C)C)NC(=O)[C@@H](N)CCCCN)C(=O)N[C@@H](C)C(N)=O [KLAKGLAKWAKGLAKLAKGLA]

MIC [9]: > 200 µM
MIC [2]: > 200 µM
MIC [10]: > 200 µM
Structure (SMILES): CC[C@H](C)[C@H](NC(=O)[C@H](CCCCN)NC(=O)CNC(=O)CNC(=O)[C@H](CC(C)C)NC(=O)[C@H](CC(N)=O)NC(=O)[C@H](C)NC(=O)[C@H](C)NC(=O)[C@@H](N)CCC(=O)O)C(=O)N[C@@H](CC(C)C)C(=O)N[C@@H](CCC(=O)O)C(=O)N[C@@H](CCC(=O)O)C(=O)N[C@@H](CCCCN)C(=O)N[C@@H](CCCCN)C(=O)N[C@@H](CC(C)C)C(=O)N[C@@H](CO)C(=O)N[C@@H](CCCN=C(N)N)C(=O)N[C@@H](CC(C)C)C(=O)N1CCC[C@H]1C(=O)N1CCC[C@H]1C(=O)N[C@@H](CO)C(=O)N[C@@H](Cc1cnc[nH]1)C(=O)N[C@@H](CC(C)C)C(=O)O [EAANLGGKILEEKKLSRLPPSHL]

MIC [11]: > 121 µM
MIC [2]: 121 µM (≈ 128 µg/mL)
MIC [3]: 7.55 µM (≈ 7.99 µg/mL)
MIC [4]: 121 µM (≈ 128 µg/mL)
Structure (SMILES): CC(C)C[C@H](NC(=O)[C@H](CC(C)C)NC(=O)[C@H](CCCCN)NC(=O)[C@H](CCCCN)NC(=O)[C@H](CC(C)C)NC(=O)CNC(=O)[C@H](CCCCN)NC(=O)[C@H](CC(C)C)NC(=O)[C@@H](N)Cc1ccccc1)C(N)=O [FLKGLKKLL]

MIC [12]: 25 µM (≈ 48.9 µg/mL)
MIC [2]: 25 µM (≈ 48.9 µg/mL)
MIC [4]: 50 µM (≈ 97.8 µg/mL)
Structure (SMILES): CC[C@H](C)[C@H](NC(=O)[C@H](CCCCN)NC(=O)CNC(=O)[C@@H](NC(=O)[C@@H](NC(=O)[C@H](CO)NC(=O)CNC(=O)[C@H](C)NC(=O)[C@H](CCCCN)NC(=O)[C@H](CO)NC(=O)[C@H](C)NC(=O)[C@H](CCSC)NC(=O)CN)[C@@H](C)CC)C(C)C)C(=O)N[C@@H](C)C(=O)N[C@@H](CCCCN)C(=O)N[C@H](C(=O)N[C@@H](C)C(=O)N[C@@H](CC(C)C)C(=O)NCC(=O)N[C@@H](C)C(=O)N[C@@H](CC(C)C)C(N)=O)[C@@H](C)CC [GMASKAGSIVGKIAKIALGAL]

MIC [12]: ≥ 100 µM
Structure (SMILES): CC[C@H](C)[C@H](NC(=O)[C@H](CCCCN)NC(=O)[C@H](CC(=O)O)NC(=O)[C@H](CC(C)C)NC(=O)[C@@H](NC(=O)[C@H](CC(N)=O)NC(=O)[C@@H](NC(=O)[C@H](Cc1ccccc1)NC(=O)[C@H](CC(C)C)NC(=O)[C@H](CCCCN)NC(=O)[C@H](CCCCN)NC(=O)CN)C(C)C)C(C)C)C(=O)N[C@@H](CCCN=C(N)N)C(=O)N[C@H]1CSSC[C@@H](C(=O)O)NC(=O)CNC(=O)CNC(=O)[C@H](C)NC(=O)[C@H](C(C)C)NC(=O)[C@H](CCCCN)NC1=O [GKKLFVNVLDKIRCKVAGGC]

MIC [12]: 3 µM (≈ 7.86 µg/mL)
MIC [2]: 50 µM (≈ 131 µg/mL)
MIC [4]: 1.5 µM (≈ 3.93 µg/mL)
Structure (SMILES): CC[C@H](C)[C@@H]1NC(=O)[C@H](Cc2ccccc2)NC(=O)[C@@H](NC(=O)[C@H](Cc2ccccc2)NC(=O)[C@@H](NC(=O)[C@H](CCCCN)NC(=O)[C@@H]2CCCN2C(=O)[C@H](CC(C)C)NC(=O)[C@@H](NC(=O)[C@H](CCCCN)NC(=O)[C@H](C)NC(=O)[C@H](C)NC(=O)[C@@H](NC(=O)[C@H](CO)NC(=O)[C@H](C)NC(=O)[C@@H](NC(=O)[C@@H](NC(=O)[C@@H]2CCCN2C(=O)[C@H](CC(C)C)NC(=O)[C@@H](N)Cc2ccccc2)C(C)C)[C@@H](C)CC)C(C)C)C(C)C)C(C)C)CSSC[C@@H](C(=O)O)NC(=O)[C@H](CCCCN)NC(=O)[C@H](CCCCN)NC(=O)[C@H]([C@@H](C)O)NC1=O [FLPVIASVAAKVLPKVFCFITKKC]

MIC [11]: > 64 µM
MIC [9]: > 64 µM
MIC [2]: > 64 µM
MIC [13]: 16 µM (≈ 27.7 µg/mL)
MIC [8]: 64 µM (≈ 111 µg/mL)
Structure (SMILES): CC[C@H](C)[C@H](NC(=O)[C@H](Cc1ccccc1)NC(=O)[C@@H]1CCCN1C(=O)[C@@H](NC(=O)[C@@H](N)CC(C)C)C(C)C)C(=O)NCC(=O)N[C@@H](CCCN=C(N)N)C(=O)N[C@H](C(=O)N[C@@H](CC(C)C)C(=O)NCC(=O)NCC(=O)N[C@@H](CC(C)C)C(=O)N[C@@H](CC(C)C)C(=O)N[C@@H](C)C(=O)N[C@@H](CCCN=C(N)N)C(=O)N[C@@H](Cc1ccccc1)C(N)=O)[C@@H](C)O [LVPFIGRTLGGLLARF]

MIC [11]: > 29.9 µM
MIC [13]: 37.4 µM (≈ 50 µg/mL)
Structure (SMILES): CC[C@H](C)[C@H](NC(=O)[C@H](CCCCN)NC(=O)[C@H](CO)NC(=O)[C@H](CC(C)C)NC(=O)[C@H](CC(C)C)NC(=O)CNC(=O)[C@H](C)NC(=O)[C@@H](NC(=O)[C@H](C)NC(=O)CNC(=O)[C@@H](NC(=O)[C@@H](N)Cc1ccccc1)[C@@H](C)CC)C(C)C)C(=O)N[C@@H](Cc1ccccc1)C(N)=O [FIGAVAGLLSKIF]

MIC [7]: 5.06 µM (≈ 12.5 µg/mL)
Structure (SMILES): CC(C)C[C@H](NC(=O)[C@H](Cc1ccccc1)NC(=O)[C@H](CCCCN)NC(=O)[C@H](CO)NC(=O)[C@@H](NC(=O)[C@H](CC(C)C)NC(=O)[C@H](CCCCN)NC(=O)[C@H](CCCCN)NC(=O)[C@H](CCCCN)NC(=O)[C@H](Cc1ccccc1)NC(=O)[C@H](CO)NC(=O)[C@H](CCCCN)NC(=O)[C@H](Cc1c[nH]c2ccccc12)NC(=O)[C@@H](N)CCCCN)[C@@H](C)O)C(=O)N[C@@H](Cc1cnc[nH]1)C(=O)N[C@@H](CO)C(=O)N[C@@H](C)C(=O)N[C@@H](CCCCN)C(=O)N[C@@H](CCCCN)C(=O)N[C@@H](Cc1ccccc1)C(N)=O [KWKSFKKKLTSKFLHSAKKF]

MIC [14]: 2.11 µM (≈ 5 µg/mL)
MIC [1]: 27 µM (≈ 64 µg/mL)
MIC [4]: 3.38 µM (≈ 8 µg/mL)
Structure (SMILES): CC(C)C[C@H](NC(=O)[C@H](Cc1ccc(O)cc1)NC(=O)[C@@H]1CCCN1C(=O)[C@@H]1CCCN1C(=O)[C@H](CCCCN)NC(=O)[C@@H]1CCCN1C(=O)[C@@H](N)C(C)C)C(=O)N1CCC[C@H]1C(=O)N[C@@H](CCCN=C(N)N)C(=O)N1CCC[C@H]1C(=O)N[C@@H](CCCN=C(N)N)C(=O)N1CCC[C@H]1C(=O)N1CCC[C@H]1C(=O)N[C@@H](CCCN=C(N)N)C(=O)N[C@@H](CCCN=C(N)N)C(=O)N[C@@H](CCCCN)C(=O)N[C@@H](Cc1ccc(O)cc1)C(=O)N[C@@H](CC(N)=O)C(=O)N[C@@H](Cc1cnc[nH]1)C(N)=O [VPKPPYLPRPRPPRRKYNH]

MIC [11]: 14.1 µM (≈ 16 µg/mL)
MIC [2]: 28.2 µM (≈ 32 µg/mL)
MIC [3]: 7.06 µM (≈ 7.99 µg/mL)
MIC [4]: 14.1 µM (≈ 16 µg/mL)
Structure (SMILES): CSCC[C@H](NC(=O)[C@H](CCCCN)NC(=O)[C@H](CC(C)C)NC(=O)[C@@H](N)Cc1ccccc1)C(=O)N[C@@H](CC(C)C)C(=O)N[C@@H](CCCCN)C(=O)N[C@@H](CCCCN)C(=O)N[C@@H](CC(C)C)C(=O)N[C@@H](CC(C)C)C(N)=O [FLKMLKKLL]

MIC [2]: 10 µM (≈ 27.7 µg/mL)
MIC [5]: 2.5 µM (≈ 6.92 µg/mL)
Structure (SMILES): CC[C@H](C)[C@H](NC(=O)CN)C(=O)N[C@@H](CCCCN)C(=O)N[C@@H](CCCCN)C(=O)N[C@@H](Cc1c[nH]c2ccccc12)C(=O)N[C@@H](CC(C)C)C(=O)N[C@@H](Cc1cnc[nH]1)C(=O)N[C@@H](CO)C(=O)N1CCC[C@H]1C(=O)N[C@@H](CCCCN)C(=O)N[C@@H](CCCCN)C(=O)N[C@@H](Cc1ccccc1)C(=O)N1CCC[C@H]1C(=O)N[C@@H](CCCCN)C(=O)N[C@@H](CCCCN)C(=O)N[C@@H](Cc1ccccc1)C(=O)N[C@H](C(=O)N[C@@H](CCCCN)C(=O)N[C@@H](CCCCN)C(=O)N[C@H](C(=O)N[C@@H](CCSC)C(=O)N[C@@H](CC(N)=O)C(=O)N[C@@H](CO)C(N)=O)[C@@H](C)CC)C(C)C [GIKKWLHSPKKFPKKFVKKIMNS]
